Patent US20220117966A1, “METHOD OF TREATING FIBROSIS” (AstraZeneca AB, priority 2019, published 2022)
Read-outs that look alike come from different tables or passages of the source.

How the values were obtained:
[1] = IPF patients; cited from earlier work
[2] = test system: Airway basal cells (ABC) from IPF patients; test: Organoid formation assay; assay type: cell-based, human; details: for organoid formation of airway basal cells (FIGS. 4, 5 and 6): saracatinib 8, 25, 75, 210 or 600 nM, pirfenidone 1 mM, nintedanib 1 μM
Procedure: Airway Basal Cells (ABCs) either derived from IPF patients or Healthy Volunteers (HV) were cultured in Matrigel® (Corning in a transwell system with or without lung fibroblasts either derived from patients with IPF or normal lung for up-to 35 days in the incubator (5% CO2, 37° C.)).

[3] = cited from earlier work
[4] = test system: TGFβ-stimulated NHLF (normal human lung fibroblasts); test: cells; assay type: cell-based; details: for IC50: Homo sapiens, Fibroblast; for cell viability / cell death / inhibition of αSMA (FIG. 2): TGF-beta1-stimulated human lung fibroblasts
Procedure: Normal human lung fibroblasts from a healthy donor (passage 5) were seeded in 96-well culture plates with 50,000 cells per cm^2 in DMEM culture medium with 10% FBS and 1% penicillin-streptomycin. […]. The cells were incubated for one hour before 0.123 ng/ml TGF-beta1 was added on top of the compound/vehicle treatment and the cells were incubated for 24 hours.
After 24 hours the medium was collected and analysed for IL-6 and the cells were either lysed for RNA isolation, DNA-synthesis and TaqMan quantitative PCR or fixated and stained for alpha-smooth muscle actin (αSMA) and with Hoechst nuclear staining. The percentage of cells staining positive for αSMA and thereby displaying the myofibroblast phenotype was determined using high content image analysis. The Ct-values from the quantitative PCR were normalised against the geomean Ct values of two reference-genes and presented as fold-expression over those reference genes (2^-delta Ct).

[5] = IPF patients, cited from earlier work
[6] = Pharmacokinetics (PK) of saracatinib in the bleomycin model; assay type: in vivo; details: mouse, mice; for Cmax: Day 21, dosed 1 hour prior to terminal blood draw; for concentration at 21 day: Day 21, not dosed before blood draw, read-out: Cmin +/− SD
Lyn = Lyn (Homo sapiens, UniProt P07948); details: cited from earlier work
Chain of Lyn (P07948 whole entry): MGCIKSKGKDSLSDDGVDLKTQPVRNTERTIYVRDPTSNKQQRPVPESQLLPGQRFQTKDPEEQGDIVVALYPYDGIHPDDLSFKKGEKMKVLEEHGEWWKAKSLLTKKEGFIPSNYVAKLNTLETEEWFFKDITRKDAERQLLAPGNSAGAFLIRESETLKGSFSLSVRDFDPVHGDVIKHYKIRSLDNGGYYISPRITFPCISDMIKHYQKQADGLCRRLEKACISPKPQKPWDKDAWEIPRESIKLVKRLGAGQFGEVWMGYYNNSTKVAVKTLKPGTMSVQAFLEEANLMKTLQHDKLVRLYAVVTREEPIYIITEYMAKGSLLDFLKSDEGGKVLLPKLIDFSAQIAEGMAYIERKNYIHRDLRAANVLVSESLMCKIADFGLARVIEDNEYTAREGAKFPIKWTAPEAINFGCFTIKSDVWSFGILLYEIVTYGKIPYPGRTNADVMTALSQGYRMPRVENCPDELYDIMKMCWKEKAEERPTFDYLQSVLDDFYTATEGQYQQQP

[7] = Saracatinib AD Phase IIa (52 weeks), safety and tolerability; assay type: in vivo, human; details: Alzheimer's Disease patients
[8] = test system: bleomycin (Bleo) induced lung injury and fibrosis; test: Bleomycin model, lung hydroxyproline levels; assay type: in vivo, mice; details: saracatinib 1, 3 or 10 mg/kg BID vs pirfenidone 200 mg/kg BID and nintedanib 30 mg/kg BID, from day 7, day 21
Procedure: Bleomycin Sulfate was obtained from Sigma-Aldrich. The IU conversion to enzyme units (U) is approximately 1.5-2 U/mg. For delivery of 4 U/kg in 50 μL, a solution of […] was prepared in 0.9% NaCl. Bleomycin or vehicle was dosed on Day 0 intranasally. […] Body weights and clinical observations were recorded on days 7, 14, and 21. On day 21, mice were euthanized by cervical dislocation. One side of lung tissue was dissected and analyzed for hydroxyproline levels as an indicator of local collagen deposition, and the other side lung was fixed in Formalin for histopathology (Quantitative staining with sirius red).

[9] = test system: human primary cell-based systems (BioMAP); test: DiscoverX BioMAP Combo ELECT panel, relative protein expression; details: saracatinib 3.3 μM, relative to vehicle control
Excerpt: BioMAP panels consist of human primary cell-based systems designed to model different aspects of the human body in an in vitro format. The 12 systems available in the Diversity PLUS panel allow test agent characterization in an unbiased way across a broad set of systems modelling various human disease states. BioMAP systems are constructed with one or more primary cell types from healthy human donors, with stimuli (such as cytokines or growth factors) added to capture relevant signalling networks that naturally occur in human tissue or pathological conditions. Systems recapitulate aspects of the systemic immune response including monocyte-driven Th1 inflammation (LPS system) or T cell stimulation (SAg system), chronic Th1 inflammation driven by macrophage activation (IMphg system) and the T cell-dependent activation of B cells that occurs in germinal centers (BT system). The BE3C system (Th1) and the BF4T system (Th2) represent airway inflammation of the lung, while the MyoF system models myofibroblast-lung tissue remodelling.
Each test agent generates a signature BioMAP profile that is created from the changes in protein biomarker readouts within individual system environments. Biomarker readouts (7-17 per system) are selected for therapeutic and biological relevance, are predictive for disease outcomes or specific drug effects and are validated using agents with known mechanism of action (MoA). Each readout is measured quantitatively by immune-based methods that detect protein (e.g., ELISA) or functional assays that measure proliferation and viability. BioMAP readouts are diverse and include cell surface receptors, cytokines, chemokines, matrix molecules and enzymes.
In the Combo ELECT panel, a 4×4 combination array is created to test all mixtures of two serially diluted single test agents/drugs.

[10] = 24 h, read-out: Mean IC50 ACTA2 mRNA
[11] = 24 h, read-out: Mean IC50 COL1A1 mRNA
[12] = 24 h, read-out: Mean IC50 COL3A1 mRNA
[13] = 24 h, read-out: Mean IC50 FN1 mRNA
[14] = 24 h, read-out: Mean IC50 IL-6 protein
[15] = 100 mg or 125 mg per day, 52 weeks, n = 79

In the case of `COC(=O)c1ccc2c(c1)NC(=O)/C2=C(\Nc1ccc(N(C)C(=O)CN2CCN(C)CC2)cc1)c1ccccc1` [Nintedanib], the “Treatment Discontinuations, clinical studies IPF” value [1] is listed as 21% (15%), the “organoid formation of airway basal cells (FIGS. 4, 5 and 6)” value (shortened to “organoid formation of airway basal cells”) [2] is listed as “little to no effect” and the “Treatment Discontinuations, Real-World data” value [3] is listed as 26.3%. It also gave an IC50 [4, 10] of 1.75 µM, an IC50 [4, 11] of 0.536 µM and an IC50 [4, 12] of 0.725 µM. It also gave an IC50 [4, 13] of 0.624 µM, an IC50 [4, 14] of 0.311 µM and an IC50 ([4]; 24 h, read-out: Mean IC50 αSMA) of 0.601 µM. For the same compound, the “cell viability / cell death” value [4] was “some evidence of cell death” and the “inhibition of αSMA (FIG. 2)” value [4] was “inhibited αSMA, but at supra-therapeutic concentrations”.

For `Cc1ccc(=O)n(-c2ccccc2)c1` [Pirfenidone], the “organoid formation of airway basal cells” value [2] is given as “little to no effect”, the “Treatment Discontinuations, Real-World data” value [3] is given as 20.9% and the Anorexia ([5]; 52 weeks, n = 623) is given as 13%. For the same compound, the Diarrhea ([5]; 52 weeks, n = 623) was 24.6%, the Nausea ([5]; 52 weeks, n = 623) was 35.5% and the Vomiting ([5]; 52 weeks, n = 623) was 12.7%. The “Weight Decrease” value ([5]; 52 weeks, n = 623) was 10%, the “Decreased Appetite” value ([5]; Pirfenidone Medical Review, pirfenidone n = 345) was 9%^3 and the “Treatment Discontinuations, clinical studies IPF” value [5] was 14.6% (9.6%). The IC50 ([4]; TGFβ-stimulated NHLF, healthy donor 197 (n = 3), 24 hours, read-out: Mean IC50 ACTA2 mRNA) was > 10 µM, the IC50 ([4]; TGFβ-stimulated NHLF, healthy donor 197 (n = 3), 24 hours, read-out: Mean IC50 COL1A1 mRNA) was > 10 µM and the IC50 ([4]; TGFβ-stimulated NHLF, healthy donor 197 (n = 3), 24 hours, read-out: Mean IC50 COL3A1 mRNA) was > 10 µM. The IC50 ([4]; TGFβ-stimulated NHLF, healthy donor 197 (n = 3), 24 hours, read-out: Mean IC50 FN1 mRNA) was > 10 µM, the IC50 ([4]; TGFβ-stimulated NHLF, healthy donor 197 (n = 3), 24 hours, read-out: Mean IC50 IL-6 protein) was > 10 µM and the IC50 ([4]; TGFβ-stimulated NHLF, healthy donor 197 (n = 3), 24 hours, read-out: Mean IC50 αSMA) was > 10 µM. For the same compound, the “cell viability / cell death” value [4] was “some evidence of cell death” and the “inhibition of αSMA (FIG. 2)” value [4] was “inhibited αSMA, but at supra-therapeutic concentrations”.

In the case of `CN1CCN(CCOc2cc(OC3CCOCC3)c3c(Nc4c(Cl)ccc5c4OCO5)ncnc3c2)CC1` [Saracatinib, N-(5-chlorobenzo[d][1,3]dioxol-4-yl)-7-(2-(4-methylpiperazin-1-yl)ethoxy)-5-((tetrahydro-2H-pyran-4-yl)oxy)quinazolin-4-amine], the Cmax ([6]; 1 mg/kg BID oral gavage) is reported as 71.5 nM, the concentration at 21 day ([6]; 1 mg/kg BID oral gavage) is reported as 2.52 nM and the Cmax ([6]; 3 mg/kg BID oral gavage) is reported as 139 nM. The concentration at 21 day ([6]; 3 mg/kg BID oral gavage) was 8.41 nM, the Cmax ([6]; 10 mg/kg BID oral gavage) was 390 nM and the concentration at 21 day ([6]; 10 mg/kg BID oral gavage) was 31.8 nM. For the same compound, the IC50 (Lyn) was 0.005 µM, the “Treatment Discontinuations, clinical studies AD” value [7] was 8.2% (1.2%) and the Anorexia [7, 15] was 3%. For the same compound, the “Decreased Appetite” value [7, 15] was 9%, the Diarrhea [7, 15] was 27.8% and the Nausea [7, 15] was 12.7%. For the same compound, the Vomiting [7, 15] was 5.1%, the “Weight Decrease” value [7, 15] was 10% and the cytotoxicity ([2]; ABC organoids, saracatinib 8 to 600 nM) was “non-cytotoxic”. For the same compound, the “organoid formation of airway basal cells” value [2] was “differentiated and uniquely efficacious”, the “hydroxyproline levels after bleomycin induced lung injury and fibrosis (FIG. 1)” value [8] was “compares favourably to pirfenidone (at much lower doses) and is potentially superior to nintedanib at clinically relevant doses” and the IC50 [4, 10] was 0.186 µM. The IC50 [4, 11] was 1.01 µM, the IC50 [4, 12] was 7.99 µM and the IC50 [4, 13] was 0.526 µM. The IC50 [4, 14] was 0.128 µM, the IC50 ([4]; 24 h, read-out: Mean IC50 αSMA) was 0.185 µM and the “cell viability / cell death” value [4] was “without impacting cell viability”. The “inhibition of αSMA (FIG. 2)” value [4] was “dose-dependent inhibition of αSMA”, the “expression of MMP-9 (FIG. 7)” value [9] was “decreased expression” and the “expression of N-cadherin (FIG. 7)” value [9] was “decreased expression”. The “expression of TIMP-1 (FIG. 7)” value [9] was “decreased expression”, the “expression of VCAM-1 (FIG. 7)” value [9] was “increased expression” and the “expression of a-SMA (FIG. 7)” value [9] was “increased expression”. The “expression of sIL-6 (FIG. 7)” value [9] was “decreased expression”, the “expression of sIL-8 (FIG. 7)” value [9] was “decreased expression” and the “expression of sVEGF (FIG. 7)” value [9] was “decreased expression”.
